# Patent US20040076968A1, “Method for detecting pre-disposition to hepatotoxicity” (priority 2000, published 2004)
# What was measured:
# [1] = test system: UGT1A7 gene; test: Association of UGT1A7 polymorphisms with liver function abnormality in tolcapone-treated patients (case-control genotyping); format: in vivo, human
# Text: Disease severity had already been controlled for by the original study inclusion criteria.
# For all other single nucleotide polymorphisms (SNPs) discovery and genotyping was done by double-stranded DNA sequencing using an ABI capillary sequencer and Big Dye chemistry (ABI). The primers used to amplify all exons are shown below and were also used as sequencing primers. Publicly available genomic sequences were used as references for primer design. All polymorphisms were targeted with these pairs-of-primer sets:
# Fourty nanograms of genomic DNA were PCR-amplified in 50 μl reactions using an automated PCR machine. Reaction conditions varied as follows. For the amplification of the UGT1A6-fragment conditions were as follows: 10 mM Tris pH 8.3, 50 mM KCl, 1.5 mM MgCl2, 0.2 mM of each dNTP, 0.4 μM of each primer and 1.5U Boehringer Taq Polymerase. The thermocycling protocol consisted of an initial incubation of 95° C. for 15 min. followed by 35 cycles of 94° C. for 1 min., 57° C. for 30 sec., 72° C. for 1 min., and one final extension step of 72° C. for 10 min. The UGT1A7-1 fragment was amplified using Qiagen PCR buffer with 1.5 mM MgCl2, 0.2 mM of each dNTP, 0.4 μM of each primer and 1.5U Boehringer Taq Polymerase. The thermocycling protocol was the same as for UGT1A6-fragment with one exception: the annealing temperature was 61° C. For UGT1A7-2 fragment PCR conditions were as follows: 150 mM Tris pH 8.5, 15 mM (NH4)2SO4, 3.5 mM MgCl2, 0.2 mM of each dNTP, 0.4 μM of each primer and 1.5U Qiagen Hot Start Taq Polymerase. Thermocycling was done using a touch-down PCR protocol. After an iniatial amplification of 95° C. for 10 min. followed 5 cycles of 95° C. for 1 min., 62° C. for 30 sec. (minus 0.5° C. per cycle), 72° C. for 1 min and thirty cycles of 95° C. for 1 min., 60° C. for 30 sec., 72° C. for 1 min. and a final extension step of 72° C. for 10 min. After PCR amplification fragments were purified using the Qiaquick PCR purification kit on a Biorobot 9600. Cycle sequencing was performed on an automated PCR machine using ABI Big Dye terminator chemistry according to the manufacturer's intruction with the following changes: 2.5-5 ng/100 bp of PCR product were mixed with 2 μl Big Dye terminatior mix, oligonucleotide primer concentration was 10 pmol, if necessary 5% DMSO was added to the reaction; the final reaction volume was 10 μl. Sequencing reactions were subjected to 28 cycles at 93° C. for 30 sec, 48° C. for 30 sec, and 58° C. for 120 sec., followed by an ethanol/NaOAc precipitation. After decanting the ethanol, samples were evaporated to dryness using a SpeedVac for 2 min. and were resuspended in 45 μl ultrapure water (MERCK, HPLC grade). […] were loaded on an ABI 3700 capillary sequencer using POP5 as a polymer. After sequencing, the polymorphism analyses were done using Polyphred software (licenced from University of Washington).
# The patient samples were divided into two groups.
# For each genotype, the following analyses were performed:
# a) Analysis of the entire genotype: patients were classified according to the following three categories: homozygous 1/1 (two copies of allele 1 and no copies of allele 2), heterozygous 1/2 (one copy of allele 1 and one copy of allele 2) or homozygous 2/2 (no copies of allele 1 and two copies of allele 2). Analysis was conducted to assess whether there were differences in the proportion of case patients in each of these groups, compared with the proportion of control patients. The Cochran-Maentel-Hanszel (CMH) test was applied to the data presented in a 2-by-3 table (the two columns indicating presence or absence of liver function abnormality and the three rows indicating the three categories of the genotype).
# [2] = Clinical trials for tolcapone in patients with Parkinson's disease: liver transaminases; format: in vivo, human; settings: rare circumstances
# Text: There was therefore a desire to establish whether there is a correlation between the occurrence of such liver abnormalities, which are indicators of liver toxicity and certain genetic pre-dispositions.
# [3] = test system: rat hepatotocyte cultures; test: Cytotoxicity in rat hepatocyte cultures; format: cell-based; settings: in vitro
smiles,measurement,setting,value
Cc1ccc(C(=O)c2cc(O)c(O)c([N+](=O)[O-])c2)cc1 [tolcapone],n (%) of patients,"[1]; UGT1A7_197 C/G, Allele A Absent, Liver Function Abnormality Absent",125 (46.5%)
same,n (%) of patients,"[1]; UGT1A7_197 C/G, Allele A Absent, Liver Function Abnormality Present",46 (34.6%)
same,n (%) of patients,"[1]; UGT1A7_197 C/G, Allele A Present, Liver Function Abnormality Absent",144 (53.5%)
same,n (%) of patients,"[1]; UGT1A7_197 C/G, Allele A Present, Liver Function Abnormality Present",87 (65.4%)
same,n (%) of patients,"[1]; UGT1A7_197 C/G, Allele C Absent, Liver Function Abnormality Absent",32 (11.9%)
same,n (%) of patients,"[1]; UGT1A7_197 C/G, Allele C Absent, Liver Function Abnormality Present",25 (18.8%)
same,n (%) of patients,"[1]; UGT1A7_197 C/G, Allele C Present, Liver Function Abnormality Absent",237 (88.1%)
same,n (%) of patients,"[1]; UGT1A7_197 C/G, Allele C Present, Liver Function Abnormality Present",108 (81.2%)
same,n (%) of patients,"[1]; UGT1A7_197 C/G, Genotype Heterozygous A/C, Liver Function Abnormality Absent",112 (41.6%)
same,n (%) of patients,"[1]; UGT1A7_197 C/G, Genotype Heterozygous A/C, Liver Function Abnormality Present",62 (46.6%)
same,n (%) of patients,"[1]; UGT1A7_197 C/G, Genotype Homozygous A/A, Liver Function Abnormality Absent",32 (11.9%)
same,n (%) of patients,"[1]; UGT1A7_197 C/G, Genotype Homozygous A/A, Liver Function Abnormality Present",25 (18.8%)
same,n (%) of patients,"[1]; UGT1A7_197 C/G, Genotype Homozygous C/C, Liver Function Abnormality Absent",125 (46.5%)
same,n (%) of patients,"[1]; UGT1A7_197 C/G, Genotype Homozygous C/C, Liver Function Abnormality Present",46 (34.6%)
same,n (%) of patients,"[1]; UGT1A7_551 Asn129Lys, Allele G Absent, Liver Function Abnormality Absent",49 (18.2%)
same,n (%) of patients,"[1]; UGT1A7_551 Asn129Lys, Allele G Absent, Liver Function Abnormality Present",14 (10.6%)
same,n (%) of patients,"[1]; UGT1A7_551 Asn129Lys, Allele G Present, Liver Function Abnormality Absent",220 (81.8%)
same,n (%) of patients,"[1]; UGT1A7_551 Asn129Lys, Allele G Present, Liver Function Abnormality Present",118 (89.4%)
same,n (%) of patients,"[1]; UGT1A7_551 Asn129Lys, Allele T Absent, Liver Function Abnormality Absent",96 (35.7%)
same,n (%) of patients,"[1]; UGT1A7_551 Asn129Lys, Allele T Absent, Liver Function Abnormality Present",59 (44.7%)
same,n (%) of patients,"[1]; UGT1A7_551 Asn129Lys, Allele T Present, Liver Function Abnormality Absent",173 (64.3%)
same,n (%) of patients,"[1]; UGT1A7_551 Asn129Lys, Genotype Heterozygous G/T, Liver Function Abnormality Absent",124 (46.1%)
same,n (%) of patients,"[1]; UGT1A7_551 Asn129Lys, Genotype Heterozygous G/T, Liver Function Abnormality Present",59 (44.7%)
same,n (%) of patients,"[1]; UGT1A7_551 Asn129Lys, Genotype Homozygous G/G, Liver Function Abnormality Absent",96 (35.7%)
same,n (%) of patients,"[1]; UGT1A7_551 Asn129Lys, Genotype Homozygous G/G, Liver Function Abnormality Present",59 (44.7%)
same,n (%) of patients,"[1]; UGT1A7_551 Asn129Lys, Genotype Homozygous T/T, Liver Function Abnormality Absent",49 (18.2%)
same,n (%) of patients,"[1]; UGT1A7_551 Asn129Lys, Genotype Homozygous T/T, Liver Function Abnormality Present",14 (10.6%)
same,n (%) of patients,"[1]; UGT1A7_555 silent or Arg131Lys, Allele A Absent, Liver Function Abnormality Absent",49 (18.2%)
same,n (%) of patients,"[1]; UGT1A7_555 silent or Arg131Lys, Allele A Absent, Liver Function Abnormality Present",14 (10.6%)
same,n (%) of patients,"[1]; UGT1A7_555 silent or Arg131Lys, Allele A Present, Liver Function Abnormality Absent",220 (81.8%)
same,n (%) of patients,"[1]; UGT1A7_555 silent or Arg131Lys, Allele A Present, Liver Function Abnormality Present",118 (89.4%)
same,n (%) of patients,"[1]; UGT1A7_555 silent or Arg131Lys, Allele C Absent, Liver Function Abnormality Absent",96 (35.7%)
same,n (%) of patients,"[1]; UGT1A7_555 silent or Arg131Lys, Allele C Absent, Liver Function Abnormality Present",58 (43.9%)
same,n (%) of patients,"[1]; UGT1A7_555 silent or Arg131Lys, Allele C Present, Liver Function Abnormality Absent",173 (64.3%)
same,n (%) of patients,"[1]; UGT1A7_555 silent or Arg131Lys, Allele C Present, Liver Function Abnormality Present",74 (56.1%)
same,n (%) of patients,"[1]; UGT1A7_555 silent or Arg131Lys, Genotype Heterozygous A/C, Liver Function Abnormality Absent",124 (46.1%)
same,n (%) of patients,"[1]; UGT1A7_555 silent or Arg131Lys, Genotype Heterozygous A/C, Liver Function Abnormality Present",60 (45.5%)
same,n (%) of patients,"[1]; UGT1A7_555 silent or Arg131Lys, Genotype Homozygous A/A, Liver Function Abnormality Absent",96 (35.7%)
same,n (%) of patients,"[1]; UGT1A7_555 silent or Arg131Lys, Genotype Homozygous A/A, Liver Function Abnormality Present",58 (43.9%)
same,n (%) of patients,"[1]; UGT1A7_555 silent or Arg131Lys, Genotype Homozygous G/G, Liver Function Abnormality Absent",49 (18.2%)
same,n (%) of patients,"[1]; UGT1A7_555 silent or Arg131Lys, Genotype Homozygous G/G, Liver Function Abnormality Present",14 (10.6%)
same,n (%) of patients,"[1]; UGT1A7_556 Arg131Lys or Gln, Allele A Absent, Liver Function Abnormality Absent",49 (18.3%)
same,n (%) of patients,"[1]; UGT1A7_556 Arg131Lys or Gln, Allele A Absent, Liver Function Abnormality Present",14 (10.6%)
same,n (%) of patients,"[1]; UGT1A7_556 Arg131Lys or Gln, Allele A Present, Liver Function Abnormality Absent",219 (81.7%)
same,n (%) of patients,"[1]; UGT1A7_556 Arg131Lys or Gln, Allele A Present, Liver Function Abnormality Present",118 (89.4%)
same,n (%) of patients,"[1]; UGT1A7_556 Arg131Lys or Gln, Allele G Absent, Liver Function Abnormality Absent",96 (35.8%)
same,n (%) of patients,"[1]; UGT1A7_556 Arg131Lys or Gln, Allele G Absent, Liver Function Abnormality Present",59 (44.7%)
same,n (%) of patients,"[1]; UGT1A7_556 Arg131Lys or Gln, Allele G Present, Liver Function Abnormality Absent",172 (64.2%)
same,n (%) of patients,"[1]; UGT1A7_556 Arg131Lys or Gln, Allele G Present, Liver Function Abnormality Present",73 (55.3%)
same,n (%) of patients,"[1]; UGT1A7_556 Arg131Lys or Gln, Genotype Heterozygous A/G, Liver Function Abnormality Absent",123 (45.9%)
same,n (%) of patients,"[1]; UGT1A7_556 Arg131Lys or Gln, Genotype Heterozygous A/G, Liver Function Abnormality Present",59 (44.7%)
same,n (%) of patients,"[1]; UGT1A7_556 Arg131Lys or Gln, Genotype Homozygous A/A, Liver Function Abnormality Absent",96 (35.8%)
same,n (%) of patients,"[1]; UGT1A7_556 Arg131Lys or Gln, Genotype Homozygous A/A, Liver Function Abnormality Present",44 (33.8%)
same,n (%) of patients,"[1]; UGT1A7_556 Arg131Lys or Gln, Genotype Homozygous G/G, Liver Function Abnormality Absent",49 (18.3%)
same,n (%) of patients,"[1]; UGT1A7_556 Arg131Lys or Gln, Genotype Homozygous G/G, Liver Function Abnormality Present",14 (10.6%)
same,n (%) of patients,"[1]; UGT1A7_786 Trp208Arg, Allele G Absent, Liver Function Abnormality Absent",124 (46.3%)
same,n (%) of patients,"[1]; UGT1A7_786 Trp208Arg, Allele G Absent, Liver Function Abnormality Present",46 (34.3%)
same,n (%) of patients,"[1]; UGT1A7_786 Trp208Arg, Allele G Present, Liver Function Abnormality Absent",144 (53.7%)
same,n (%) of patients,"[1]; UGT1A7_786 Trp208Arg, Allele G Present, Liver Function Abnormality Present",86 (65.7%)
same,n (%) of patients,"[1]; UGT1A7_786 Trp208Arg, Allele T Absent, Liver Function Abnormality Absent",30 (11.2%)
same,n (%) of patients,"[1]; UGT1A7_786 Trp208Arg, Allele T Absent, Liver Function Abnormality Present",26 (19.4%)
same,n (%) of patients,"[1]; UGT1A7_786 Trp208Arg, Allele T Present, Liver Function Abnormality Absent",238 (88.8%)
same,n (%) of patients,"[1]; UGT1A7_786 Trp208Arg, Allele T Present, Liver Function Abnormality Present",108 (80.6%)
same,n (%) of patients,"[1]; UGT1A7_786 Trp208Arg, Genotype Heterozygous T/C, Liver Function Abnormality Absent",114 (42.5%)
same,n (%) of patients,"[1]; UGT1A7_786 Trp208Arg, Genotype Heterozygous T/C, Liver Function Abnormality Present",62 (46.3%)
same,n (%) of patients,"[1]; UGT1A7_786 Trp208Arg, Genotype Homozygous C/C, Liver Function Abnormality Absent",30 (11.2%)
same,n (%) of patients,"[1]; UGT1A7_786 Trp208Arg, Genotype Homozygous C/C, Liver Function Abnormality Present",26 (19.4%)
same,n (%) of patients,"[1]; UGT1A7_786 Trp208Arg, Genotype Homozygous T/T, Liver Function Abnormality Absent",124 (46.3%)
same,n (%) of patients,"[1]; UGT1A7_786 Trp208Arg, Genotype Homozygous T/T, Liver Function Abnormality Present",46 (34.3%)
same,effect on liver transaminase activity,[2],reversible asymptomatic increase in liver transaminase activity
same,cytotoxicity on inhibition of glucuronidation and oxidation,[3],increase cytotoxicity
